Data on six compounds can be found in ChEMBL document CHEMBL1123386, “Substituted-vinyl hydroxytriarylethylenes, 1-[4-[2-(diethylamino) ethoxy]phenyl]-1-(4-hydroxyphenyl)-2-phenylethylenes: synthesis and effects on MCF 7 breast cancer cell proliferation” (J Med Chem, 1986).

In this assay the test system is MCF7. The assay is described as follows: Compound was tested for binding affinity against nuclear ER in MCF-7 cell extracts. The class given is functional, cell-based, Homo sapiens.

A word on the Kd: it is the equilibrium constant for the complex coming apart. A low value points to higher affinity.

Take `CCN(CC)CCOc1ccc(/C(=C(\c2ccccc2)[N+](=O)[O-])c2ccc(O)cc2)cc1`: the Kd worked out at 0.56 nM. The value for `CC/C(=C(\c1ccc(O)cc1)c1ccc(OCCN(CC)CC)cc1)c1ccccc1` was 0.29 nM; that for `CCN(CC)CCOc1ccc(/C(=C(/Cl)c2ccccc2)c2ccc(O)cc2)cc1` [4-OH-ENCLOMIPHENE] was 0.11 nM.

`CCN(CC)CCOc1ccc(/C(=C\c2ccccc2)c2ccc(O)cc2)cc1` displayed a Kd of 1.11 nM. The same measure for `CCN(CC)CCOc1ccc(/C(=C(/C#N)c2ccccc2)c2ccc(O)cc2)cc1`: 1.11 nM.

On to `CCN(CC)CCOc1ccc(/C(=C(/Br)c2ccccc2)c2ccc(O)cc2)cc1`, for which binding was put at a Kd of 0.36 nM.
